Assay results as given in article PMC5341070, “Small molecule inhibitors block Gas6-inducible TAM activation and tumorigenicity” (Scientific Reports, 2017).
Read-outs that look alike come from different tables or passages of the source.

Tests used:
Experiment in all cases: biochemical
Parameters in all cases: KINOMEscan (DiscoverX) competition binding screen of 97 human kinases, percent of control at 10 uM
CDK7 = CDK7 (Homo sapiens, UniProt P50613)
Description: (§1) The KINOMEscan profiling of the inhibitors were performed as per directions by the manufacturer (DiscoverX) against a panel of human protein kinases.

ACVR1B = ACVR1B (Homo sapiens, UniProt P36896)
Description: as §1

MET = MET (Homo sapiens, UniProt P08581)
Description: as §1

JNK1 = biological target: T1, JNK1 (Homo sapiens, UniProt P45983)
T1 construct: gene MAPK8
T1 sequence (P45983 whole entry): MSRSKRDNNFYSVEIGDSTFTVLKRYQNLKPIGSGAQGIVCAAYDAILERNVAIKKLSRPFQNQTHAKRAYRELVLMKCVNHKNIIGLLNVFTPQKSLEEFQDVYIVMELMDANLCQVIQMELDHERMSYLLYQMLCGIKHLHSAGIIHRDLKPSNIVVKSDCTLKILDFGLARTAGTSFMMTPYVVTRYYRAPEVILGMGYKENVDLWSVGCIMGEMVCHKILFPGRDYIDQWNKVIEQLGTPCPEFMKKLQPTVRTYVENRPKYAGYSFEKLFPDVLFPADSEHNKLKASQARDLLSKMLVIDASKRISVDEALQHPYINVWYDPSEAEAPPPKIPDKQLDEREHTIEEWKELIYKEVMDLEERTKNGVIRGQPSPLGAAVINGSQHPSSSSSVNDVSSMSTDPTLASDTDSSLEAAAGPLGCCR
Description: as §1

DYRK1B = DYRK1B (Homo sapiens, UniProt Q9Y463); conditions: binding competition, % of control
Description: as §1

AKT1 = AKT1 (Homo sapiens, UniProt P31749)
Chain of AKT1 (P31749 whole entry): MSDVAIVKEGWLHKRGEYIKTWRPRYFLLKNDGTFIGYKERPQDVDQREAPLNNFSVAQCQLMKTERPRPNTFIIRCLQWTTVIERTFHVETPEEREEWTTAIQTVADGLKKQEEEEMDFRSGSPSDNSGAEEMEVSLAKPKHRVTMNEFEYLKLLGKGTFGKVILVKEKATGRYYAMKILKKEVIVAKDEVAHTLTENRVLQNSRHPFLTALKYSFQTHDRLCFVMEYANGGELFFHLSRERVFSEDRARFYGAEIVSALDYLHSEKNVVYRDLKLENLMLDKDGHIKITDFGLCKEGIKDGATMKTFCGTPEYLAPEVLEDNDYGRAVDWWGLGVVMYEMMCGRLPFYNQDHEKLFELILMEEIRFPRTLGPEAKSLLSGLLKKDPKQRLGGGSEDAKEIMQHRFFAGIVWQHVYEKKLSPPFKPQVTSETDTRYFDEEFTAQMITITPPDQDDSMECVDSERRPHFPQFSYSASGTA
Description: as §1

CDK11 = biological target: T2, CDK11 (Homo sapiens, UniProt Q9BWU1)
T2 construct: gene CDK19
Description: as §1

PLK3 = PLK3 (Homo sapiens, UniProt Q9H4B4)
Chain of PLK3 (Q9H4B4 whole entry): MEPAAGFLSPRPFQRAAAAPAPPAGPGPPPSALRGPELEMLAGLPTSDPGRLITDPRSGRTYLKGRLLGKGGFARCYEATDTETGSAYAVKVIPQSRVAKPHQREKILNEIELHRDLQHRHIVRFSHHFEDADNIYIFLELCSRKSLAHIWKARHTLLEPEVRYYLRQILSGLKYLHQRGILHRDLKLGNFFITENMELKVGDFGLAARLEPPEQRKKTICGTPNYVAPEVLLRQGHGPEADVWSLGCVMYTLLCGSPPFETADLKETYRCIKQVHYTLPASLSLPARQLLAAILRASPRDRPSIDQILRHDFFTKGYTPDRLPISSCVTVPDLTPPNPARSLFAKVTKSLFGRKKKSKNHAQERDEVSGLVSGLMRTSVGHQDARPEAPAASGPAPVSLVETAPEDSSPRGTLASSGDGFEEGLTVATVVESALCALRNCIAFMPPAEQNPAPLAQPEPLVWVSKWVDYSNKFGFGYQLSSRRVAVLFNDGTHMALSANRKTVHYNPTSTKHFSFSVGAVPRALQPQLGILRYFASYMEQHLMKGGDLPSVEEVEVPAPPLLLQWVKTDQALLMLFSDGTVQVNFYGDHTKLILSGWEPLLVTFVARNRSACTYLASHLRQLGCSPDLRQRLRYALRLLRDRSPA
Description: as §1

PIK3CA = PIK3CA (Homo sapiens, UniProt P42336)
Description: as §1

ULK2 = ULK2 (Homo sapiens, UniProt Q8IYT8)
Description: as §1

PRKCE = PRKCE (Homo sapiens, UniProt Q02156)
Chain of PRKCE (Q02156 whole entry): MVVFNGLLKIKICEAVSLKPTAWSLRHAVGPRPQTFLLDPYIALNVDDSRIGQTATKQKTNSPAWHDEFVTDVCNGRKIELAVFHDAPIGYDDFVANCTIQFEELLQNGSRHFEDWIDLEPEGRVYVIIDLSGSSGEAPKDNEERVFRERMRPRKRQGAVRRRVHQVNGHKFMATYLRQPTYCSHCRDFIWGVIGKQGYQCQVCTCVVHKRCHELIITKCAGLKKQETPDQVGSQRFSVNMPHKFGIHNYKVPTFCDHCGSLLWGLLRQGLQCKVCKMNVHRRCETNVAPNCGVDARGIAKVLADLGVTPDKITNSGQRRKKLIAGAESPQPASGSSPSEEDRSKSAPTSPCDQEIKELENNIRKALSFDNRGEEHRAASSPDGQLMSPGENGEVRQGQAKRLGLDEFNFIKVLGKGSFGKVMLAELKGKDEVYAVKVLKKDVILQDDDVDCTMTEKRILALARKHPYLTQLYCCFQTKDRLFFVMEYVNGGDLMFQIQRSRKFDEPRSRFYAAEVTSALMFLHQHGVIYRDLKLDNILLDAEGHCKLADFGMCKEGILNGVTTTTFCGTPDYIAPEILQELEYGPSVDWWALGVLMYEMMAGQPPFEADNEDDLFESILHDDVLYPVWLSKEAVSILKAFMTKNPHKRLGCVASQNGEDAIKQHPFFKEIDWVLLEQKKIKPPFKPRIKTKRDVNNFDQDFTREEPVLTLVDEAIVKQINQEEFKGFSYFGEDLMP
Description: as §1

CSNK1D = CSNK1D (Homo sapiens, UniProt P48730)
Description: as §1

CHEK1 = CHEK1 (Homo sapiens, UniProt O14757)
Chain of CHEK1 (O14757 whole entry): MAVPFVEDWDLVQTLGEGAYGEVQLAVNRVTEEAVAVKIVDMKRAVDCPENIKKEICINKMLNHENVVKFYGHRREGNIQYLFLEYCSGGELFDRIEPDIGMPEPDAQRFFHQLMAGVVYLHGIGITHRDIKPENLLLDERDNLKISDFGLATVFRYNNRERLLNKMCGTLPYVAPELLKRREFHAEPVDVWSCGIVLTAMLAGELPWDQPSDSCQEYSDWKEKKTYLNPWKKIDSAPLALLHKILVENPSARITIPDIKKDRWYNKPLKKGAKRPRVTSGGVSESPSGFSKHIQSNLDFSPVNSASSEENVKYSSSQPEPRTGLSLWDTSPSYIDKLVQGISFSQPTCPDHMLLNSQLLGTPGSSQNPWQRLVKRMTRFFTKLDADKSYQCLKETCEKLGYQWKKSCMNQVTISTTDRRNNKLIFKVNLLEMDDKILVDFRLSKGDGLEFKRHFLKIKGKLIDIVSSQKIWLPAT
Description: as §1

KIT(V559D,T670I) = KIT(V559D,T670I) (Homo sapiens, UniProt P10721, T670I/V559D)
Description: as §1

PCTK1 = biological target: T3, PCTK1 (Homo sapiens, UniProt Q00536)
T3 construct: gene CDK16
Description: as §1

PDGFRA = PDGFRA (Homo sapiens, UniProt P16234)
Description: as §1

BTK = BTK (Homo sapiens, UniProt Q06187)
Description: as §1

MEK2 = biological target: T4, MEK2 (Homo sapiens, UniProt P36507)
T4 construct: gene MAP2K2
T4 sequence (P36507 whole entry): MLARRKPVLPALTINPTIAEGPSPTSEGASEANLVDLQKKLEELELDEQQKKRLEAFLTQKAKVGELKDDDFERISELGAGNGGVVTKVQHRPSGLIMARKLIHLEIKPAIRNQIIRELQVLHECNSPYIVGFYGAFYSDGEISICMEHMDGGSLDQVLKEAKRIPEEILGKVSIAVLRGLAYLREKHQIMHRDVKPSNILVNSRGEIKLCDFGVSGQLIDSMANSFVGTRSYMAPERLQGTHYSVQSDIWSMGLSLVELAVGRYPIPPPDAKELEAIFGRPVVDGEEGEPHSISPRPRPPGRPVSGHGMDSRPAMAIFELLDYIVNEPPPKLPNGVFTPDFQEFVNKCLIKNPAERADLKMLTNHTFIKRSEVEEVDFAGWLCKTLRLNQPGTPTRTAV
Description: as §1

MEK1 = biological target: T5, MEK1 (Homo sapiens, UniProt Q02750)
T5 construct: gene MAP2K1
T5 sequence (Q02750 whole entry): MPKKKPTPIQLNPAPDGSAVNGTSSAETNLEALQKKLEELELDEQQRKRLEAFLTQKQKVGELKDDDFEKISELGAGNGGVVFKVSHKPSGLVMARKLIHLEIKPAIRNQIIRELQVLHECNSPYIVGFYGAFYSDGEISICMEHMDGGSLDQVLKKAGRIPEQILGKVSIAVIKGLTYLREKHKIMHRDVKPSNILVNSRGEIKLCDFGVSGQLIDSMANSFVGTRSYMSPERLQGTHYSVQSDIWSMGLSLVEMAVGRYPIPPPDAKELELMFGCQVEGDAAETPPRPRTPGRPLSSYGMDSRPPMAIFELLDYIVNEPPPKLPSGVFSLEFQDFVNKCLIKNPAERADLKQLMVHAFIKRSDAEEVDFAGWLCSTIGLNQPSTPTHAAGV
Description: as §1

PKAC-alpha = biological target: T6, PKAC-alpha (Homo sapiens, UniProt P17612)
T6 construct: gene PRKACA
Description: as §1

MARK3 = MARK3 (Homo sapiens, UniProt P27448)
Description: as §1

AKT2 = AKT2 (Homo sapiens, UniProt P31751)
Chain of AKT2 (P31751 whole entry): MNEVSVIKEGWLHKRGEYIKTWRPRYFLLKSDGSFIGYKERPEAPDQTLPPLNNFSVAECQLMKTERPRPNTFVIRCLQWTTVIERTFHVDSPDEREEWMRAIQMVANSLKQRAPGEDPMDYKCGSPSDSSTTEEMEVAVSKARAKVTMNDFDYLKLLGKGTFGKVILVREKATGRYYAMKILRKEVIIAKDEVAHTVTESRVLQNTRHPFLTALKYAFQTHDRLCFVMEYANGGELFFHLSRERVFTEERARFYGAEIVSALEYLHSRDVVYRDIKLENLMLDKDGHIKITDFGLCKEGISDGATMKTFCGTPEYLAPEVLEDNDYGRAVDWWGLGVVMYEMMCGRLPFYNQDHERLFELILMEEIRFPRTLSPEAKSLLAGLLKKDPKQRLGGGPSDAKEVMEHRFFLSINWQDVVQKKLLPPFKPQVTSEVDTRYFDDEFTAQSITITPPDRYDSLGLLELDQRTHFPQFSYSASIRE
Description: as §1

PLK1 = PLK1 (Homo sapiens, UniProt P53350)
Chain of PLK1 (P53350 whole entry): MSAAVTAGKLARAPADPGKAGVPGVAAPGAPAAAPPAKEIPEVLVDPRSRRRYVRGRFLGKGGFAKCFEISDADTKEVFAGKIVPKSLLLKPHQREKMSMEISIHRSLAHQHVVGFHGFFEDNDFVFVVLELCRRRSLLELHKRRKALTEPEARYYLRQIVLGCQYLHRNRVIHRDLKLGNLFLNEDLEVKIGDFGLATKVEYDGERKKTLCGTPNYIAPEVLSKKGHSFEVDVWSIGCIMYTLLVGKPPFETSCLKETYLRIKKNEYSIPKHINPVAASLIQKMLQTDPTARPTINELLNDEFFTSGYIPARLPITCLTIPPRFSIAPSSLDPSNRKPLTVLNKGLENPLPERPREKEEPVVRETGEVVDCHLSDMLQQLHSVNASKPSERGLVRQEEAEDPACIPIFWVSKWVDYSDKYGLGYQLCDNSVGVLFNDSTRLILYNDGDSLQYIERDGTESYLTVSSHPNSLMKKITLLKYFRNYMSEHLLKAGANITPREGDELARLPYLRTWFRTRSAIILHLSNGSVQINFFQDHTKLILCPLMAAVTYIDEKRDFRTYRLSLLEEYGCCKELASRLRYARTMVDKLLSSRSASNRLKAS
Description: as §1

[1] = read-out: R428 %Ctrl @ 10000nM, binding competition
[2] = binding competition, % of control, read-out: RU-301 %Ctrl @ 10000nM

Chain of CDK7 (P50613 whole entry): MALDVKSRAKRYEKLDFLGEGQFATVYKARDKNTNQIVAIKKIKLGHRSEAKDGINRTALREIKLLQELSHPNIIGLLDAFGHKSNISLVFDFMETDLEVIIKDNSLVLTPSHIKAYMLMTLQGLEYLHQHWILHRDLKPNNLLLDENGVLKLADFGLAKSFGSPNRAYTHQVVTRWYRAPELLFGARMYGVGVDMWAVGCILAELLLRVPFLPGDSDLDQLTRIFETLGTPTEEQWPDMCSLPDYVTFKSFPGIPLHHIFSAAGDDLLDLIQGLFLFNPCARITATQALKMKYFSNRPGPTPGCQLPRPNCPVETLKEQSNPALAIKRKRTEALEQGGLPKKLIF

In the case of `Nc1nc(Nc2ccc3c(c2)CC[C@@H](N2CCCC2)CC3)nn1-c1cc2c(nn1)-c1ccccc1CCC2` [R428], the percent of control binding at 10 µM (CDK7; [1]) is reported as 23%, the percent of control binding at 10 µM (ACVR1B; [1]) is reported as 26% and the percent of control binding at 10 µM (MET; [1]) is reported as 9.4%. It also gave a percent of control binding at 10 µM (JNK1; [1]) of 14%, a remaining binding at 10 µM (DYRK1B; read-out: R428 %Ctrl @ 10000nM) of 46% and a percent of control binding at 10 µM (AKT1; [1]) of 100%. The percent of control binding at 10 µM (CDK11; [1]) was 98%, the percent of control binding at 10 µM (PLK3; [1]) was 29% and the percent of control binding at 10 µM (PIK3CA; [1]) was 45%. The percent of control binding at 10 µM (ULK2; [1]) was 1.6%, the percent of control binding at 10 µM (PRKCE; [1]) was 24% and the percent of control binding at 10 µM (CSNK1D; [1]) was 98%. The percent of control binding at 10 µM (CHEK1; [1]) was 15%, the percent of control binding at 10 µM (KIT(V559D,T670I); [1]) was 0.05% and the percent of control binding at 10 µM (PCTK1; [1]) was 90%. The percent of control binding at 10 µM (PDGFRA; [1]) was 1.4%, the percent of control binding at 10 µM (BTK; [1]) was 31% and the percent of control binding at 10 µM (MEK2; [1]) was 0.2%. It also gave a percent of control binding at 10 µM (MEK1; [1]) of 3%, a percent of control binding at 10 µM (PKAC-alpha; [1]) of 48% and a percent of control binding at 10 µM (MARK3; [1]) of 49%. For the same compound, the percent of control binding at 10 µM (AKT2; [1]) was 100% and the percent of control binding at 10 µM (PLK1; [1]) was 2.9%.
In the case of `Cc1cc(CSc2ccccc2C(=O)NCCNc2ccc(C(F)(F)F)cc2[N+](=O)[O-])on1` [RU-301], the remaining binding at 10 µM (CDK7; [2]) is reported as 85%, the remaining binding at 10 µM (ACVR1B; [2]) is reported as 96% and the remaining binding at 10 µM (MET; [2]) is reported as 88%. It also gave a remaining binding at 10 µM (JNK1; [2]) of 91%, a remaining binding at 10 µM (DYRK1B; read-out: RU-301 %Ctrl @ 10000nM) of 100% and a remaining binding at 10 µM (AKT1; [2]) of 88%. For the same compound, the remaining binding at 10 µM (CDK11; [2]) was 94%, the remaining binding at 10 µM (PLK3; [2]) was 91% and the remaining binding at 10 µM (PIK3CA; [2]) was 100%. The remaining binding at 10 µM (ULK2; [2]) was 97%, the remaining binding at 10 µM (PRKCE; [2]) was 91% and the remaining binding at 10 µM (CSNK1D; [2]) was 94%. It also gave a remaining binding at 10 µM (CHEK1; [2]) of 83%, a remaining binding at 10 µM (KIT(V559D,T670I); [2]) of 85% and a remaining binding at 10 µM (PCTK1; [2]) of 100%. For the same compound, the remaining binding at 10 µM (PDGFRA; [2]) was 99%, the remaining binding at 10 µM (BTK; [2]) was 100% and the remaining binding at 10 µM (MEK2; [2]) was 71%. For the same compound, the remaining binding at 10 µM (MEK1; [2]) was 75%, the remaining binding at 10 µM (PKAC-alpha; [2]) was 90% and the remaining binding at 10 µM (MARK3; [2]) was 87%. For the same compound, the remaining binding at 10 µM (AKT2; [2]) was 100% and the remaining binding at 10 µM (PLK1; [2]) was 95%.
